{"source": "patent US20150072968A1", "about": "“Treating Infections with Ceftolozane/Tazobactam in Subjects Having Impaired Renal Function” (Calixa Therapeutics, Inc., priority 2013, published 2015)", "key": {"[1]": {"experiment": "Phase 1 single dose PK of 750 mg ceftolozane/tazobactam in severe renal impairment and ESRD on hemodialysis (Example 8)", "assay_type": "in vivo, human", "settings": "for AUC(0-t) / Cmax / half-life / Tmax / AUC(0-inf) / clearance / Vd: both sexes, human, plasma; for Cmax: read-out: Cmax, Mean (CV %); for half-life: read-out: t1/2, Mean (CV %) (converted); for Tmax: read-out: tmax, Median (minimum, maximum); for AUC(0-inf): read-out: AUC∞, Mean (CV %); for clearance: read-out: CL, Mean (CV %) (converted); for Vd: read-out: Vss, Mean (CV %)", "protocol": "This was a Phase 1, multicenter, prospective, open-label study of 750 mg ceftolozane/tazobactam (as CXA-201) administered IV in male and female adult subjects with severe renal impairment (estimated CLCR<30 mL/min) and subjects with end-stage renal disease (ESRD) on hemodialysis (HD). The primary objective of the study was to determine the PK profile of ceftolozane/tazobactam in subjects with severe renal impairment and subjects with ESRD on HD and to determine the effect of HD on the clearance of ceftolozane/tazobactam.\nSubjects with severe renal impairment received a single IV 1-hour infusion of 750 mg ceftolozane/tazobactam on Day 1. […] Subjects in this cohort received an IV dose of 750 mg ceftolozane/tazobactam as a 1 hour infusion immediately after their first HD session on Day 1 (postdialysis, approximately 72 hours prior to the next HD session) and a second dose of ceftolozane/tazobactam approximately 2 hours before their second HD session on Day 4 of the study. Infusion of ceftolozane/tazobactam was completed approximately 1 hour before the start of HD.\nSubjects in both cohorts had urine (if not anuric) and plasma samples collected for determination of levels of ceftolozane, tazobactam and the M1 metabolite of tazobactam; subjects in the ESRD on HD cohort also had dialysate fluid samples collected for PK assessment. Plasma, urine, and dialysate levels of ceftolozane, tazobactam, and its metabolite M1 collected over a prespecified interval were determined by LC/MS/MS assay.\nAll subjects underwent hemodialysis for 3 to 4 hours using a high-flux membrane (either 1.4, 1.8, or 1.9 m^2) on Days 1, 4, and 6 as scheduled. Average blood flow rate was 264 to 600 mL/min and average dialysis flow rate was either 600 or 800 mL/min for all subjects with ESRD."}, "[2]": {"settings": "cited from earlier work"}, "[3]": {"experiment": "Pharmacokinetics of ceftolozane/tazobactam in healthy volunteers", "assay_type": "in vivo, human", "settings": "single 1.5 g intravenous dose of CXA-201, healthy male adults"}, "[4]": {"experiment": "Population pharmacokinetic analysis of 10 clinical studies (Example 7)", "assay_type": "in vivo, human", "description": "Base model development. […] Intrinsic covariates analyzed included body weight, age, gender, ethnicity, and baseline calculated CrCL). The CrCL was estimated using the Cockcroft-Gault formula: […] […] Final population PK model: evaluation and performance. […] Smaller shrinkage ≦0.2 indicates good individual estimates."}, "clinical": {"experiment": "clinical", "settings": "human, in vivo", "description": "CXA-201 plasma concentrations from 6 subjects with ESRD following a single dose without HD and a second dose with HD were used to develop a pPK model (Phoenix NLME, Pharsight)."}, "[5]": {"settings": "cited from earlier work", "remark": "listed apart in the source"}, "[6]": {"experiment": "Phase I PK studies in subjects with varying degrees of renal function (Example 11)", "assay_type": "in vivo, human", "description": "Male and female subjects, aged 18 to 79 years, with varying degrees of renal function were enrolled in two, prospective, open-label, phase I studies of intravenous ceftolozane/tazobactam. A total of 36 subjects were enrolled into cohorts based on degree of renal function: normal (n=11), mild impairment (n=6), moderate impairment (n=7), severe impairment (n=6), and ESRD on HD (n=6). To ensure subjects with ESRD were receiving effective HD, a target adequacy of HD calculated from the pre- and post-blood urea nitrogen ratios (Kt/V) of at least 1.2 for a minimum of 3 months prior to enrollment was required. Renal impairment groups were classified according to the 2010 U.S."}, "[7]": {"settings": "intravenous, 750 mg, ESRD on HD, second infusion Day 4, start of infusion to end of dialysis"}, "[8]": {"settings": "iv, 750 mg, ESRD on HD, Day 1 IV infusion of 750 mg (non-hemodialysis phase)"}, "[9]": {"settings": "iv, 750 mg, ESRD on HD, second IV infusion of 750 mg on Day 4 (during HD)"}, "[10]": {"settings": "iv, 750 mg, severe renal impairment, single IV 1-hour infusion of 750 mg ceftolozane/tazobactam"}, "[11]": {"settings": "moderate renal impairment, single 1,000 mg/500 mg dose"}, "[12]": {"settings": "severe renal impairment, single 500 mg/250 mg dose"}}, "note": "Read-outs that look alike come from different tables or passages of the source."}
{"smiles": "C[C@]1(Cn2ccnn2)[C@H](C(=O)O)N2C(=O)C[C@H]2S1(=O)=O", "note": "[Tazobactam]", "values": [{"measurement": "AUC(0-t)", "setting": "[1]; intravenous, 750 mg, ESRD on HD, second infusion Day 4, approximately 6 hours from start of infusion to end of dialysis, read-out: AUClast, Mean (CV %)", "result": 28800, "unit": "ng·h/mL"}, {"measurement": "Cmax", "setting": "[1]; [7]", "result": 15700, "unit": "ng/mL"}, {"measurement": "half-life", "setting": "[1]; [7]", "result": 58.8, "unit": "min"}, {"measurement": "Tmax", "setting": "[1]; [7]", "result": 1, "unit": "h"}, {"measurement": "AUC(0-t)", "setting": "[1]; intravenous, 750 mg, subjects with ESRD, read-out: Exposure (AUC48h) After HD (Day 1), Median (Range)", "result": 107000, "unit": "ng·h/mL"}, {"measurement": "AUC(0-t)", "setting": "[1]; intravenous, 750 mg, subjects with ESRD, read-out: Exposure (AUC48h) During HD (Day 3), Median (Range)", "result": 37100, "unit": "ng·h/mL"}, {"measurement": "AUC(0-inf)", "setting": "[1]; [8]", "result": 105000, "unit": "ng·h/mL"}, {"measurement": "clearance", "setting": "[1]; [8]", "result": 50, "unit": "mL/min"}, {"measurement": "Cmax", "setting": "[1]; [8]", "result": 21200, "unit": "ng/mL"}, {"measurement": "Vd", "setting": "[1]; [8]", "result": 17, "unit": "L"}, {"measurement": "half-life", "setting": "[1]; [8]", "result": 314, "unit": "min"}, {"measurement": "AUC(0-t)", "setting": "[1]; iv, 750 mg, ESRD on HD, Day 1 IV infusion of 750 mg (non-hemodialysis phase), through 48 hours, read-out: AUClast, Mean (CV %)", "result": 103000, "unit": "ng·h/mL"}, {"measurement": "Cmax", "setting": "[1]; [9]", "result": 15600, "unit": "ng/mL"}, {"measurement": "half-life", "setting": "[1]; [9]", "result": 312, "unit": "min"}, {"measurement": "AUC(0-t)", "setting": "[1]; iv, 750 mg, ESRD on HD, second IV infusion of 750 mg on Day 4 (during HD), through 44 hours, read-out: AUClast, Mean (CV %)", "result": 38400, "unit": "ng·h/mL"}, {"measurement": "AUC(0-t)", "setting": "[1]; iv, 750 mg, severe renal impairment, single IV 1-hour infusion of 750 mg ceftolozane/tazobactam, through 48 hours, read-out: AUClast, Mean (CV %)", "result": 50300, "unit": "ng·h/mL"}, {"measurement": "Cmax", "setting": "[1]; [10]", "result": 15200, "unit": "ng/mL"}, {"measurement": "AUC(0-inf)", "setting": "[1]; [10]", "result": 52400, "unit": "ng·h/mL"}, {"measurement": "clearance", "setting": "[1]; [10]", "result": 85, "unit": "mL/min"}, {"measurement": "Vd", "setting": "[1]; [10]", "result": 16.5, "unit": "L"}, {"measurement": "half-life", "setting": "[1]; [10]", "result": 156, "unit": "min"}, {"measurement": "Tmax", "setting": "[1]; ESRD on HD, second IV infusion of 750 mg on Day 4 (during HD)", "result": 1, "unit": "h"}, {"measurement": "removed by dialysis", "setting": "[1]; subjects with ESRD on HD", "result": "~56", "unit": "%"}, {"measurement": "AUC48h Ratio (Day 3:1), Median (Range)", "setting": "[1]; subjects with ESRD, during HD vs after HD", "result": "0.44 (0.26 − 0.53)"}, {"measurement": "Percent Removed, Median (Range)", "setting": "[1]; subjects with ESRD, hemodialysis", "result": "56 (47 − 74) Percent"}, {"measurement": "protein binding", "setting": "[2]", "result": "~30", "unit": "%"}, {"measurement": "excreted in the urine as unchanged parent drug", "setting": "[3]", "result": "More than 80%"}, {"measurement": "between-subject variability (BSV) of CL", "setting": "[4]; final population PK model", "result": 50.2, "unit": "%"}, {"measurement": "between-subject variability (BSV) of Vc", "setting": "[4]; final population PK model", "result": 52.5, "unit": "%"}, {"measurement": "inter-compartment clearance (CL2)", "setting": "[4]; final population PK model", "result": 3.13, "unit": "L/h"}, {"measurement": "volume of distribution in the peripheral compartment (Vp)", "setting": "[4]; final population PK model", "result": 4.29, "unit": "L"}, {"measurement": "clearance", "setting": "[4]; human, plasma, intravenous, final population PK model, read-out: CL, population estimate (converted)", "result": 300, "unit": "mL/min"}, {"measurement": "Vc, population estimate", "setting": "[4]; subjects without infection", "result": 14.2, "unit": "L"}, {"measurement": "Vd", "setting": "clinical", "result": 11, "unit": "L"}, {"measurement": "clearance", "setting": "clinical", "result": 51.2, "unit": "mL/min"}, {"measurement": "increase of CL by HD", "setting": "clinical", "result": 6.6, "unit": "fold"}, {"measurement": "increase of Vc by HD", "setting": "clinical", "result": 1.5, "unit": "fold"}, {"measurement": "terminal elimination half-life (t½β)", "setting": "[5]; healthy volunteers", "result": "~1", "unit": "h"}, {"measurement": "Terminal elimination half-lives (t1/2)", "setting": "[5]; patients with normal renal function", "result": "~1", "unit": "h"}, {"measurement": "excreted in the urine as the unchanged parent drug", "setting": "[5]; remainder as inactive M1 metabolite", "result": 80, "unit": "%"}, {"measurement": "extraction ratio", "setting": "[6]; 1 h after the start of HD", "result": 48, "unit": "%"}, {"measurement": "extraction ratio", "setting": "[6]; 2 h after the start of HD", "result": 54, "unit": "%"}, {"measurement": "median Cmax in plasma higher compared with normal renal function, dose normalized", "setting": "[6]; ESRD during non-HD", "result": 2.4, "unit": "fold"}, {"measurement": "average extraction ratio during HD", "setting": "[6]; ESRD on HD", "result": 53, "unit": "%"}, {"measurement": "median RDHD (percent reduction in plasma concentration during HD)", "setting": "[6]; ESRD on HD", "result": 95, "unit": "%"}, {"measurement": "reduction in overall exposure based on the AUC0-∞ on and off HD", "setting": "[6]; ESRD on HD", "result": "~56", "unit": "%"}, {"measurement": "plasma concentration rebound peak following HD, of the original Cmax", "setting": "[6]; ESRD, period following HD", "result": "~6", "unit": "%"}, {"measurement": "extraction ratio", "setting": "[6]; at end of HD", "result": 55, "unit": "%"}, {"measurement": "clearance", "setting": "[6]; both sexes, human, dialysate and plasma, intravenous, ESRD on HD, read-out: median dialysis clearance (CLD) (converted)", "result": 73.2, "unit": "mL/min"}, {"measurement": "half-life", "setting": "[6]; both sexes, human, plasma, intravenous, ESRD on HD, read-out: t1/2 during the HD period (converted)", "result": 54.6, "unit": "min"}, {"measurement": "increase of median AUC0-∞ compared with normal renal function", "setting": "[6]; [11]", "result": 2.2, "unit": "fold"}, {"measurement": "increase of median Cmax compared with normal renal function", "setting": "[6]; [11]", "result": 1.6, "unit": "fold"}, {"measurement": "increase of median AUC0-∞ compared with dose-normalized exposure in normal renal function", "setting": "[6]; [12]", "result": 3.8, "unit": "fold"}, {"measurement": "increase of median Cmax compared with dose-normalized exposure in normal renal function", "setting": "[6]; [12]", "result": 1.9, "unit": "fold"}]}
